Key:
Assay type in all cases: in vivo
[1] = system: velvetleaf (Abutilon theophrasti); test: Test G Post-Emergence Protocol; details: Abutilon theophrasti, post-emergence, 312 h, read-out: Velvetleaf damage rating; for pest or weed control at 15.625 g/ha: 15.625 g ai/ha, evaluated after 13 days (100=total damage to plant; 0=no damage to plant); for pest or weed control at 62.5 g/ha: 62.5 g ai/ha; for pest or weed control at 62.5 g/ha / pest or weed control at 250 g/ha: evaluated after 13 days, 100=total damage to plant, 0=no damage to plant; for pest or weed control at 250 g/ha: 250 g ai/ha
How it was run: (§1)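 Pot-grown seedlings, 8 days old, raised in a glasshouse at 24/16 °C day/night with 14 h light and 65% humidity, were sprayed post-emergence with test compound in acetone/water (50:50) plus 0.5% Tween 20 at 15.625, 62.5 or 250 g/ha. Damage was scored visually 13 days later on a 0–100 scale (100 = total damage).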

[2] = system: corn (Zea mays); test: Test G Post-Emergence Protocol; details: Zea mays, post-emergence, 312 h, read-out: Corn damage rating; for plant injury at 15.625 g/ha: 15.625 g ai/ha, evaluated after 13 days (100=total damage to plant; 0=no damage to plant); for plant injury at 62.5 g/ha: 62.5 g ai/ha; for plant injury at 62.5 g/ha / plant injury at 250 g/ha: evaluated after 13 days, 100=total damage to plant, 0=no damage to plant; for plant injury at 250 g/ha: 250 g ai/ha
How it was run: as §1

[3] = system: redroot pigweed (Amaranthus retroflexus); test: Test G Post-Emergence Protocol; details: Amaranthus retroflexus, post-emergence, 312 h, read-out: Pigweed, Redroot damage rating; for pest or weed control at 15.625 g/ha: 15.625 g ai/ha, evaluated after 13 days (100=total damage to plant; 0=no damage to plant); for pest or weed control at 62.5 g/ha: 62.5 g ai/ha; for pest or weed control at 62.5 g/ha / pest or weed control at 250 g/ha: evaluated after 13 days, 100=total damage to plant, 0=no damage to plant; for pest or weed control at 250 g/ha: 250 g ai/ha
How it was run: as §1

[4] = system: barnyardgrass (Echinochloa crus-galli); test: Test G Post-Emergence Protocol; details: Echinochloa crus-galli, post-emergence, 312 h, read-out: Barnyardgrass damage rating; for pest or weed control at 15.625 g/ha: 15.625 g ai/ha, evaluated after 13 days (100=total damage to plant; 0=no damage to plant); for pest or weed control at 62.5 g/ha: 62.5 g ai/ha; for pest or weed control at 62.5 g/ha / pest or weed control at 250 g/ha: evaluated after 13 days, 100=total damage to plant, 0=no damage to plant; for pest or weed control at 250 g/ha: 250 g ai/ha
How it was run: as §1

[5] = system: ivy-leaved morning glory (Ipomoea hederacea); test: Test G Post-Emergence Protocol; details: Ipomoea, post-emergence, 312 h, read-out: Morningglory, Ivy-leaved damage rating; for pest or weed control at 15.625 g/ha: 15.625 g ai/ha, evaluated after 13 days (100=total damage to plant; 0=no damage to plant); for pest or weed control at 62.5 g/ha: 62.5 g ai/ha; for pest or weed control at 62.5 g/ha / pest or weed control at 250 g/ha: evaluated after 13 days, 100=total damage to plant, 0=no damage to plant; for pest or weed control at 250 g/ha: 250 g ai/ha
How it was run: as §1

[6] = system: giant foxtail (Setaria faberi); test: Test G Post-Emergence Protocol; details: Setaria faberi, post-emergence, 312 h, read-out: Foxtail, Giant damage rating; for pest or weed control at 15.625 g/ha: 15.625 g ai/ha, evaluated after 13 days (100=total damage to plant; 0=no damage to plant); for pest or weed control at 62.5 g/ha: 62.5 g ai/ha; for pest or weed control at 62.5 g/ha / pest or weed control at 250 g/ha: evaluated after 13 days, 100=total damage to plant, 0=no damage to plant; for pest or weed control at 250 g/ha: 250 g ai/ha
How it was run: as §1

[7] = system: velvetleaf (Abutilon theophrasti); test: Test G Pre-Emergence Protocol; details: Abutilon theophrasti, pre-emergence, 312 h, evaluated after 13 days; for pest or weed control at 15.625 g/ha: 15.625 g ai/ha; for pest or weed control at 15.625 g/ha / pest or weed control at 250 g/ha: read-out: Velvetleaf damage rating (100=total damage to plant; 0=no damage to plant); for pest or weed control at 62.5 g/ha: 62.5 g ai/ha, 100=total damage to plant, 0=no damage to plant, read-out: Velvetleaf damage rating; for pest or weed control at 250 g/ha: 250 g ai/ha
How it was run: (§2)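 Under a 24/16° C day/night regime with 14 h light and 65% humidity, sown pots were sprayed after one day with compound (15.625, 62.5 or 250 g/ha; 50:50 acetone/water, 0.5% Tween 20). Damage was assessed visually 13 days later, 0 to 100.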

[8] = system: corn (Zea mays); test: Test G Pre-Emergence Protocol; details: Zea mays, pre-emergence, 312 h, evaluated after 13 days; for plant injury at 15.625 g/ha: 15.625 g ai/ha; for plant injury at 15.625 g/ha / plant injury at 250 g/ha: read-out: Corn damage rating (100=total damage to plant; 0=no damage to plant); for plant injury at 62.5 g/ha: 62.5 g ai/ha, 100=total damage to plant, 0=no damage to plant, read-out: Corn damage rating; for plant injury at 250 g/ha: 250 g ai/ha
How it was run: as §2

[9] = system: redroot pigweed (Amaranthus retroflexus); test: Test G Pre-Emergence Protocol; details: Amaranthus retroflexus, pre-emergence, 312 h, evaluated after 13 days; for pest or weed control at 15.625 g/ha: 15.625 g ai/ha; for pest or weed control at 15.625 g/ha / pest or weed control at 250 g/ha: read-out: Pigweed, Redroot damage rating (100=total damage to plant; 0=no damage to plant); for pest or weed control at 62.5 g/ha: 62.5 g ai/ha, 100=total damage to plant, 0=no damage to plant, read-out: Pigweed, Redroot damage rating; for pest or weed control at 250 g/ha: 250 g ai/ha
How it was run: as §2

[10] = system: barnyardgrass (Echinochloa crus-galli); test: Test G Pre-Emergence Protocol; details: Echinochloa crus-galli, pre-emergence, 312 h, evaluated after 13 days; for pest or weed control at 15.625 g/ha: 15.625 g ai/ha; for pest or weed control at 15.625 g/ha / pest or weed control at 250 g/ha: read-out: Barnyardgrass damage rating (100=total damage to plant; 0=no damage to plant); for pest or weed control at 62.5 g/ha: 62.5 g ai/ha, 100=total damage to plant, 0=no damage to plant, read-out: Barnyardgrass damage rating; for pest or weed control at 250 g/ha: 250 g ai/ha
How it was run: as §2

[11] = system: ivy-leaved morning glory (Ipomoea hederacea); test: Test G Pre-Emergence Protocol; details: Ipomoea, pre-emergence, 312 h, evaluated after 13 days; for pest or weed control at 15.625 g/ha: 15.625 g ai/ha; for pest or weed control at 15.625 g/ha / pest or weed control at 250 g/ha: read-out: Morningglory, Ivy-leaved damage rating (100=total damage to plant; 0=no damage to plant); for pest or weed control at 62.5 g/ha: 62.5 g ai/ha, 100=total damage to plant, 0=no damage to plant, read-out: Morningglory, Ivy-leaved damage rating; for pest or weed control at 250 g/ha: 250 g ai/ha
How it was run: as §2

[12] = system: giant foxtail (Setaria faberi); test: Test G Pre-Emergence Protocol; details: Setaria faberi, pre-emergence, 312 h, evaluated after 13 days; for pest or weed control at 15.625 g/ha: 15.625 g ai/ha; for pest or weed control at 15.625 g/ha / pest or weed control at 250 g/ha: read-out: Foxtail, Giant damage rating (100=total damage to plant; 0=no damage to plant); for pest or weed control at 62.5 g/ha: 62.5 g ai/ha, 100=total damage to plant, 0=no damage to plant, read-out: Foxtail, Giant damage rating; for pest or weed control at 250 g/ha: 250 g ai/ha
How it was run: as §2

Row | Compound | pest or weed control at 15.625 g/ha [1] [%] | pest or weed control at 62.5 g/ha [1] [%] | pest or weed control at 250 g/ha [1] [%] | plant injury at 15.625 g/ha [2] [%] | plant injury at 62.5 g/ha [2] [%] | plant injury at 250 g/ha [2] [%] | pest or weed control at 15.625 g/ha [3] [%] | pest or weed control at 62.5 g/ha [3] [%] | pest or weed control at 250 g/ha [3] [%] | pest or weed control at 15.625 g/ha [4] [%] | pest or weed control at 62.5 g/ha [4] [%] | pest or weed control at 250 g/ha [4] [%] | pest or weed control at 15.625 g/ha [5] [%] | pest or weed control at 62.5 g/ha [5] [%] | pest or weed control at 250 g/ha [5] [%] | pest or weed control at 15.625 g/ha [6] [%] | pest or weed control at 62.5 g/ha [6] [%] | pest or weed control at 250 g/ha [6] [%] | pest or weed control at 15.625 g/ha [7] [%] | pest or weed control at 62.5 g/ha [7] [%] | also measured
1 | CN1CC(c2ccc(F)c(OCC(F)(F)F)c2)C(C(=O)Nc2cccc(F)c2F)C1=O (stereo not drawn) [Compound 1718] | 20 | 40 | 60 | 30 | 50 | 80 | 30 | 40 | 70 | 50 | 70 | 80 | 10 | 60 | 70 | 70 | 80 | 80 | 0 | 0 | pest or weed control at 250 g/ha [7]: 50%; plant injury at 15.625 g/ha [8]: 0%; plant injury at 62.5 g/ha [8]: 50%; plant injury at 250 g/ha [8]: 80%; pest or weed control at 15.625 g/ha [9]: 0%; pest or weed control at 62.5 g/ha [9]: 0%; pest or weed control at 250 g/ha [9]: 60%; pest or weed control at 15.625 g/ha [10]: 60%; pest or weed control at 62.5 g/ha [10]: 70%; pest or weed control at 250 g/ha [10]: 90%; pest or weed control at 15.625 g/ha [11]: 0%; pest or weed control at 62.5 g/ha [11]: 0%; pest or weed control at 250 g/ha [11]: 10%; pest or weed control at 15.625 g/ha [12]: 60%; pest or weed control at 62.5 g/ha [12]: 80%; pest or weed control at 250 g/ha [12]: 90%
2 | Cc1cc(C2CN(C)C(=O)C2C(=O)Nc2cccc(F)c2F)cc(C(F)(F)F)c1 (stereo not drawn) [Compound 1723] | 10 | 10 | 20 | 30 | 60 | 70 | 20 | 20 | 30 | 30 | 80 | 80 | 30 | 70 | 40 | 70 | 80 | 80 | 0 | 0 | pest or weed control at 250 g/ha [7]: 10%; plant injury at 15.625 g/ha [8]: 0%; plant injury at 62.5 g/ha [8]: 0%; plant injury at 250 g/ha [8]: 60%; pest or weed control at 15.625 g/ha [9]: 0%; pest or weed control at 62.5 g/ha [9]: 0%; pest or weed control at 250 g/ha [9]: 30%; pest or weed control at 15.625 g/ha [10]: 10%; pest or weed control at 62.5 g/ha [10]: 40%; pest or weed control at 250 g/ha [10]: 90%; pest or weed control at 15.625 g/ha [11]: 0%; pest or weed control at 62.5 g/ha [11]: 0%; pest or weed control at 250 g/ha [11]: 10%; pest or weed control at 15.625 g/ha [12]: 60%; pest or weed control at 62.5 g/ha [12]: 70%; pest or weed control at 250 g/ha [12]: 90%

From US12077503B2, “Substituted cyclic amides and their use as herbicides” (FMC CORPORATION, priority 2015, dated 2024)
